Measured values published in US6737383B1, “Herbicidal oxadiazolidines” (priority 1999, dated 2004).

How the values were obtained:
[1] = test system: surinam grass; experiment: Test B pre/postemergence surinam grass; assay type: in vivo, Brachiaria decumbens
In short: (§1)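 Herbicidal effect was estimated by eye on a ten-point control scale after plants spent twelve to sixteen days in a greenhouse following soil or foliar treatment. Foliar sprays targeted plants at one to four leaves; all doses were formulated in a non-phytotoxic solvent with surfactant.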

[2] = test system: blackgrass; experiment: Test B pre/postemergence blackgrass; assay type: in vivo, Alopecurus myosuroides
In short: as §1

[3] = test system: bedstraw; experiment: Test B pre/postemergence bedstraw; assay type: in vivo, Galium aparine
In short: as §1

[4] = test system: velvetleaf; experiment: Test B pre/postemergence velvetleaf; assay type: in vivo, Abutilon theophrasti; conditions: for Plant response rating, Velvetleaf: scale of 0 to 10 where 0 is no effect and 10 is complete control
In short: as §1

[5] = test system: giant foxtail; experiment: Test B pre/postemergence giant foxtail; assay type: in vivo, Setaria faberii
In short: as §1

[6] = test system: smallflower flatsedge; experiment: Test B flood test smallflower flatsedge; assay type: in vivo, Cyperus difformis
In short: (§2)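 Each value is a visual injury score relative to controls, with 10 meaning complete control and 0 no effect. Evaluation took place twelve to sixteen days after the 2-leaf-stage plants were treated and kept in the greenhouse.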

[7] = test system: purple nutsedge; experiment: Test B pre/postemergence purple nutsedge; assay type: in vivo, Cyperus rotundus; conditions: for Plant response rating, Nutsedge: scale of 0 to 10 where 0 is no effect and 10 is complete control
In short: as §1

[8] = test system: corn; experiment: Test B pre/postemergence corn; assay type: in vivo, Zea mays
In short: as §1

[9] = test system: pigweed; experiment: Test B pre/postemergence pigweed; assay type: in vivo, Amaranthus retroflexus; conditions: for Plant response rating, Redroot pigweed: scale of 0 to 10 where 0 is no effect and 10 is complete control
In short: as §1

[10] = test system: wheat; experiment: Test B pre/postemergence wheat; assay type: in vivo, Triticum aestivum; conditions: for Plant response rating, Wheat: scale of 0 to 10 where 0 is no effect and 10 is complete control
In short: as §1

[11] = test system: crabgrass; experiment: Test B pre/postemergence crabgrass; assay type: in vivo, Digitaria sanguinalis
In short: as §1

[12] = test system: soybean; experiment: Test B pre/postemergence soybean; assay type: in vivo, Glycine max; conditions: for Plant response rating, Soybean: scale of 0 to 10 where 0 is no effect and 10 is complete control
In short: as §1

[13] = test system: morningglory; experiment: Test B pre/postemergence morningglory; assay type: in vivo, Ipomoea hederacea; conditions: for Plant response rating, Morningglory: scale of 0 to 10 where 0 is no effect and 10 is complete control
In short: as §1

[14] = test system: duck salad; experiment: Test B flood test duck salad; assay type: in vivo, Heteranthera limosa
In short: as §2

[15] = test system: rice; experiment: Test B flood test rice; assay type: in vivo, Oryza sativa
In short: as §2

[16] = test system: wild oat; experiment: Test B pre/postemergence wild oat; assay type: in vivo, Avena fatua; conditions: for Plant response rating, Wild oats: scale of 0 to 10 where 0 is no effect and 10 is complete control
In short: as §1

[17] = Postemergence, Rate 500 g/ha, scale of 0 to 10 where 0 is no effect and 10 is complete control
[18] = Preemergence, Rate 62 g/ha, scale of 0 to 10 where 0 is no effect and 10 is complete control
[19] = Preemergence, Rate 125 g/ha, scale of 0 to 10 where 0 is no effect and 10 is complete control
[20] = Preemergence, Rate 250 g/ha, scale 0 to 10, 0 is no effect, 10 is complete control
[21] = Preemergence, Rate 500 g/ha, scale 0 to 10, 0 is no effect, 10 is complete control
[22] = Rate 62 g/ha, Postemergence, scale 0 to 10 (0 no effect, 10 complete control)
[23] = Rate 125 g/ha, Postemergence, scale 0 to 10, 0 is no effect, 10 is complete control
[24] = Postemergence, Rate 250 g/ha, scale 0 to 10
[25] = Rate 62 g/ha, flood test species, Pre-emergence, visual evaluation after twelve to sixteen days
[26] = Rate 125 g/ha, under heading Pre-emergence, flood test species, visual evaluation after twelve to sixteen days
[27] = Rate 250 g/ha, Pre-emergence (flood test species), scale 0 to 10, 0 is no effect, 10 is complete control
[28] = Rate 500 g/ha, Pre-emergence, flood test species, scale 0 to 10 (0 no effect, 10 complete control)

CC(C)N(C(=O)n1oc(=O)n(CC2=NOCC2)c1=O)c1ccc(F)cc1 [Compound 466]
B. signalgrass plant response rating ([1]; Postemergence, Rate 250 g/ha, scale 0 to 10, 0 no effect, 10 complete control): 3
B. signalgrass plant response rating [1, 17]: 7
Plant response rating, B. signalgrass [1, 18]: 0
Plant response rating, B. signalgrass [1, 19]: 3
B. signalgrass plant response rating [1, 20]: 6
B. signalgrass plant response rating [1, 21]: 9
B. signalgrass plant response rating [1, 22]: 2
B. signalgrass plant response rating [1, 23]: 2
Blackgrass plant response rating [2, 24]: 8
Blackgrass plant response rating [2, 17]: 9
Plant response rating, Blackgrass [2, 18]: 2
Plant response rating, Blackgrass [2, 19]: 5
Blackgrass plant response rating [2, 20]: 7
Blackgrass plant response rating [2, 21]: 8
Blackgrass plant response rating [2, 22]: 8
Bedstraw plant response rating [3, 24]: 4
Plant response rating, Bedstraw [3, 19]: 2
Bedstraw plant response rating [3, 21]: 2
Bedstraw plant response rating [3, 22]: 4
Velvetleaf plant response rating [4, 24]: 0
Plant response rating, Velvetleaf ([4]; Preemergence, Rate 62 g/ha): 0
Plant response rating, Velvetleaf ([4]; Preemergence, Rate 125 g/ha): 0
Velvetleaf plant response rating [4, 20]: 4
Velvetleaf plant response rating [4, 21]: 4
Velvetleaf plant response rating [4, 22]: 0
Velvetleaf plant response rating [4, 23]: 0
Giant foxtail plant response rating [5, 24]: 9
Giant foxtail plant response rating [5, 17]: 9
Plant response rating, Giant foxtail [5, 18]: 9
Plant response rating, Giant foxtail [5, 19]: 10
Giant foxtail plant response rating [5, 20]: 10
Giant foxtail plant response rating [5, 21]: 10
Giant foxtail plant response rating [5, 22]: 9
Plant response rating, S. Flatsedge (0 to 10 scale, 0 is no effect, 10 is complete control) [6, 25]: 0
S. Flatsedge plant response rating (0 to 10 scale, 0 is no effect, 10 is complete control) [6, 26]: 0
S. Flatsedge plant response rating [6, 27]: 0
S. Flatsedge plant response rating [6, 28]: 0
Nutsedge plant response rating [7, 24]: 0
Plant response rating, Nutsedge ([7]; Preemergence, Rate 62 g/ha): 0
Plant response rating, Nutsedge ([7]; Preemergence, Rate 125 g/ha): 0
Nutsedge plant response rating [7, 20]: 0
Nutsedge plant response rating [7, 22]: 0
Nutsedge plant response rating [7, 23]: 0
Corn plant response rating [8, 24]: 0
Corn plant response rating [8, 17]: 2
Plant response rating, Corn [8, 18]: 0
Plant response rating, Corn [8, 19]: 0
Corn plant response rating [8, 20]: 0
Corn plant response rating [8, 21]: 4
Corn plant response rating [8, 22]: 0
Corn plant response rating [8, 23]: 0
Redroot pigweed plant response rating [9, 24]: 3
Plant response rating, Redroot pigweed ([9]; Preemergence, Rate 62 g/ha): 1
Plant response rating, Redroot pigweed ([9]; Preemergence, Rate 125 g/ha): 7
Redroot pigweed plant response rating [9, 20]: 9
Redroot pigweed plant response rating [9, 21]: 10
Redroot pigweed plant response rating [9, 22]: 2
Redroot pigweed plant response rating [9, 23]: 2
Wheat plant response rating [10, 24]: 0
Plant response rating, Wheat ([10]; Preemergence, Rate 62 g/ha): 0
Plant response rating, Wheat ([10]; Preemergence, Rate 125 g/ha): 0
Wheat plant response rating [10, 20]: 0
Wheat plant response rating [10, 21]: 1
Wheat plant response rating [10, 22]: 0
Wheat plant response rating [10, 23]: 0
Crabgrass plant response rating [11, 24]: 9
Crabgrass plant response rating [11, 17]: 9
Plant response rating, Crabgrass [11, 18]: 6
Plant response rating, Crabgrass [11, 19]: 9
Crabgrass plant response rating [11, 20]: 10
Crabgrass plant response rating [11, 21]: 10
Crabgrass plant response rating [11, 22]: 9
Crabgrass plant response rating [11, 23]: 9
Soybean plant response rating [12, 24]: 4
Plant response rating, Soybean ([12]; Preemergence, Rate 62 g/ha): 0
Plant response rating, Soybean ([12]; Preemergence, Rate 125 g/ha): 2
Soybean plant response rating [12, 20]: 2
Soybean plant response rating [12, 21]: 4
Soybean plant response rating [12, 22]: 4
Soybean plant response rating [12, 23]: 4
Morningglory plant response rating [13, 24]: 2
Plant response rating, Morningglory ([13]; Preemergence, Rate 62 g/ha): 0
Plant response rating, Morningglory ([13]; Preemergence, Rate 125 g/ha): 0
Morningglory plant response rating [13, 20]: 0
Morningglory plant response rating [13, 21]: 0
Morningglory plant response rating [13, 22]: 0
Morningglory plant response rating [13, 23]: 2
Plant response rating, Ducksalad (0 to 10 scale, 0 is no effect, 10 is complete control) [14, 25]: 0
Ducksalad plant response rating (0 to 10 scale, 0 is no effect, 10 is complete control) [14, 26]: 0
Ducksalad plant response rating [14, 27]: 0
Ducksalad plant response rating [14, 28]: 0
Plant response rating, Rice (0 to 10 scale, 0 is no effect, 10 is complete control) [15, 25]: 0
Rice plant response rating (0 to 10 scale, 0 is no effect, 10 is complete control) [15, 26]: 0
Rice plant response rating [15, 27]: 0
Rice plant response rating [15, 28]: 0
Wild oats plant response rating [16, 24]: 0
Plant response rating, Wild oats ([16]; Preemergence, Rate 62 g/ha): 0
Plant response rating, Wild oats ([16]; Preemergence, Rate 125 g/ha): 0
Wild oats plant response rating [16, 20]: 3
Wild oats plant response rating [16, 21]: 7
Wild oats plant response rating [16, 22]: 0
Wild oats plant response rating [16, 23]: 0
